According to paper PMC6747015, “Structure–function study of a novel inhibitor of the casein kinase 1 family in Arabidopsis thaliana” (Plant Direct, 2019):

Key:
Recombinant CKL4 kinase = target: T1, Recombinant CKL4 kinase (Arabidopsis thaliana, UniProt Q8LPI7); test: In vitro phosphorylation assay of CKL4 (32P phosphorylation of casein); assay type: biochemical; settings: recombinant CKL4, casein, 32P‐ATP, 37°C for 2 hr; read-out: IC50 for in vitro CKL4 kinase activity
T1 sequence (Q8LPI7 1-414): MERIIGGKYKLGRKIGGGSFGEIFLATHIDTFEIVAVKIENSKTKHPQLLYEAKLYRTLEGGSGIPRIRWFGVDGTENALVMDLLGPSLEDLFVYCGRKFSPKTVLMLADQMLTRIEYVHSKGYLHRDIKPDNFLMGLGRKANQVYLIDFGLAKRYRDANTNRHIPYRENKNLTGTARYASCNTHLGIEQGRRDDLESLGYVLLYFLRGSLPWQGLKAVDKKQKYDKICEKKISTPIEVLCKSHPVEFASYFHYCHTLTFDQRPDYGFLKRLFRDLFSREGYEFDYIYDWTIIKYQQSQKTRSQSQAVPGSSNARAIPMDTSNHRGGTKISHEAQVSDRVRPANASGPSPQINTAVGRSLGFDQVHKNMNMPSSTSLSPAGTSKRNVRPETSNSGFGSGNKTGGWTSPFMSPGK
Protocol: In vitro phosphorylation assays using recombinant CKL4 were performed as described previously (Uehara et al., 2019), with synthetic small molecules. IC261 and PF‐670462 were purchased (Sigma‐Aldrich catalog numbers I0658 and SML0795, respectively). PHA767491 was synthesized as previously described (Uehara et al., 2019). All chemical compounds were dissolved in dimethyl sulfoxide (DMSO) as 10 mM stock solutions. Stock solutions were diluted with DMSO to the working concentration and added to assays in kinase reaction buffer (Uehara et al., 2019).
The activities of three known CK1 inhibitors were measured in vitro by a previously reported method (Uehara et al., 2019). Recombinant CKL4 kinase, casein, ^32P‐ATP, and different concentrations of the inhibitors were combined in a reaction buffer and kept at 37°C for 2 hr. Resulting samples were separated on a polyacrylamide gel by electrophoresis, and ^32P phosphorylation of casein was measured as an indicator of CKL4 kinase activity. IC50 (half‐maximal inhibitory concentration) was determined by calculating the results from at least two independent experiments. […] The stronger in vitro CK1 inhibitory activity shown by PF‐670462 relative to PHA767491 was consistent with previous reports (Uehara et al., 2019).

Kinase AT4G34500 = target: T2, Kinase AT4G34500 (Arabidopsis thaliana, UniProt Q6NKZ9); test: AMI‐329 bead binding with AMI‐331 competitor, kinase AT4G34500
T2 construct: from tissue; host or cells: Arabidopsis seedlings, two weeks old
Protocol: (§1) Screening for proteins bound to AMI‐329 beads was done by a method similar to what has previously been described (Uehara et al., 2019). Briefly, two‐week‐old seedlings grown under LD conditions were harvested at time points ZT2, ZT6, ZT9, and ZT17, and stored at −80°C. Proteins from the frozen plant samples were incubated with 0, 5, or 50 µM of AMI‐331 at 4°C for 30 min with rotary mixing. Two technical replicates were used for each experiment. PBS‐washed AMI‐329 beads were added to the protein samples and gently rotated at 4°C for 1 hr. AMI‐329 bead resins were washed with bead buffer (Uehara et al., 2019) six times. The washed resins were suspended in SDS sample buffer and boiled for 8 min. Protein samples were in‐gel‐digested as previously described (Uehara et al., 2019). Peptides were analyzed with a Q Exactive hybrid quadrupole‐orbitrap mass spectrometer (Thermo Fisher Scientific), as described previously (Uehara et al., 2019). […]
(§2) However, another possible mechanism for the strong AMI‐331 biological activity in vivo is that it targets proteins other than the CK1 family for period lengthening. […] It is noteworthy that kinase AT4G08800 is very similar to the CKL family, but the ATP‐binding pocket of mammalian CK1 as determined by its crystal structure (Shinohara et al., 2017) was absent from AT4G08800, as shown in an Araport 11 model (https://www.araport.org). […]

CKL9 (AT1G03930) = target: T3, CKL9 (AT1G03930) (Arabidopsis thaliana, UniProt Q9ZWB3); test: AMI‐329 bead binding with AMI‐331 competitor, CKL9
T3 construct: from tissue; host or cells: Arabidopsis seedlings, two weeks old
Protocol: as §1, §2

Reductase C (AT2G41680) = target: T4, Reductase C (AT2G41680) (Arabidopsis thaliana, UniProt O22229); test: AMI‐329 bead binding with AMI‐331 competitor, reductase C
T4 construct: Proteins from the frozen plant samples were incubated with 0, 5, or 50 µM of AMI‐331; from tissue; host or cells: two-week-old Arabidopsis seedlings (protein lysate)
Protocol: as §1, §2

CKL11 (AT4G14340) = target: T5, CKL11 (AT4G14340) (Arabidopsis thaliana, UniProt Q39050); test: AMI‐329 bead binding with AMI‐331 competitor, CKL11
T5 construct: from tissue; host or cells: Arabidopsis seedlings, two weeks old
Protocol: as §1, §2

T4 sequence (O22229 68-529): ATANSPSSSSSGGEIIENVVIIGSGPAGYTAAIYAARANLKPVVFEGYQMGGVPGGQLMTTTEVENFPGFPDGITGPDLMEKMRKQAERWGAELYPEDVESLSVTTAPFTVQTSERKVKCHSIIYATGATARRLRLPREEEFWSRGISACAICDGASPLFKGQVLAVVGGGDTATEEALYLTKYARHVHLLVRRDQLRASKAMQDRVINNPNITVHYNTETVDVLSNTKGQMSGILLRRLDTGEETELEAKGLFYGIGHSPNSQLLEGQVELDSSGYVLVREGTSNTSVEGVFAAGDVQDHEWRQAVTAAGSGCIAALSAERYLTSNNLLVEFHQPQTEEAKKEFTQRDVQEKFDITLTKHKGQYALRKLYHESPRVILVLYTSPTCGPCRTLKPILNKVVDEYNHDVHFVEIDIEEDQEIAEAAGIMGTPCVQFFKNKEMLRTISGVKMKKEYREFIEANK
T2 sequence (Q6NKZ9 whole entry): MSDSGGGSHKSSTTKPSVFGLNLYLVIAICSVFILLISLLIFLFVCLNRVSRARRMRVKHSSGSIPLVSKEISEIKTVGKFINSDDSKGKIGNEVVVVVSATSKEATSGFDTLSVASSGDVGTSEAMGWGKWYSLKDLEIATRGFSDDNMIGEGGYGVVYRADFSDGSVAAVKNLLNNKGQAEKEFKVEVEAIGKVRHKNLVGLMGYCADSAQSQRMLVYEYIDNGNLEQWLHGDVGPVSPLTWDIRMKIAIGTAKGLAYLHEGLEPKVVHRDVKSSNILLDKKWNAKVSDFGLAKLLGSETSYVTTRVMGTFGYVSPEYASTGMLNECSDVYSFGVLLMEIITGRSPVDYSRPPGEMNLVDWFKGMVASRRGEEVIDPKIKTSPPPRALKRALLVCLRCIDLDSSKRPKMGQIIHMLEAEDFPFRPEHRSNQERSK
T3 sequence (Q9ZWB3 whole entry): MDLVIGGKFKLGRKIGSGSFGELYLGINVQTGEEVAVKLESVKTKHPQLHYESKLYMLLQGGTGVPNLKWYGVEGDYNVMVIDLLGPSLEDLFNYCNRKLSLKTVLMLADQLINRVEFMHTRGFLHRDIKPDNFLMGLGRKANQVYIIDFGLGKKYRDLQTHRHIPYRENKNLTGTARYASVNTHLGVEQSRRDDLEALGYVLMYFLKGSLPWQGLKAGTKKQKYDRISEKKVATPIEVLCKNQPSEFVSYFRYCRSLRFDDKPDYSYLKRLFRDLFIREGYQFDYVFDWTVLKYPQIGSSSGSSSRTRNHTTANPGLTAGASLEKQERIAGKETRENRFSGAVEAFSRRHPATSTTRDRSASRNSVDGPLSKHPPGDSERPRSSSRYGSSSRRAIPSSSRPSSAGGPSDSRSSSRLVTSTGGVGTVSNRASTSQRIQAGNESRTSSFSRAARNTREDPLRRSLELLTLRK
T5 sequence (Q39050 whole entry): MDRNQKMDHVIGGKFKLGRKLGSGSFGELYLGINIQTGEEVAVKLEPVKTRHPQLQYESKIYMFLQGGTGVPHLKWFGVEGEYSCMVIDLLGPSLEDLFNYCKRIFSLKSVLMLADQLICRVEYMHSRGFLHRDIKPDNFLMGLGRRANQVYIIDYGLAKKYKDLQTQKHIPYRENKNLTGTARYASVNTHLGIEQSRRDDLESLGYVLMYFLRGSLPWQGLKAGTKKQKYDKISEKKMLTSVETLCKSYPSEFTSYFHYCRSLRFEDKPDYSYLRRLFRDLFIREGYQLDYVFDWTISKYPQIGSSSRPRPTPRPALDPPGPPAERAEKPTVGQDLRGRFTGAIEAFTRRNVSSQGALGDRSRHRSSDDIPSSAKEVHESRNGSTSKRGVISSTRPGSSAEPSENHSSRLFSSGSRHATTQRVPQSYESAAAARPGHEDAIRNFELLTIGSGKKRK

C#CCn1c2c(c(Br)c1-c1ccncc1)C(=O)NCC2.Cl [AMI‐331]
IC50 (Recombinant CKL4 kinase): 700 nM
Spectra (PSMs) AMI‐329 beads bound (Kinase AT4G34500; competitor AMI‐331 5 µM): 0 PSMs
Spectra (PSMs) AMI‐329 beads bound (Kinase AT4G34500; competitor AMI‐331 50 µM): 0 PSMs
Spectra (PSMs) AMI‐329 beads bound (CKL9 (AT1G03930); competitor AMI‐331 5 µM): 1 PSMs
Spectra (PSMs) AMI‐329 beads bound (CKL9 (AT1G03930); competitor AMI‐331 50 µM): 0 PSMs
Spectra (PSMs) AMI‐329 beads bound (Reductase C (AT2G41680); competitor AMI‐331 5 µM): 0 PSMs
Spectra (PSMs) AMI‐329 beads bound (Reductase C (AT2G41680); competitor AMI‐331 50 µM): 0 PSMs
Spectra (PSMs) AMI‐329 beads bound (CKL11 (AT4G14340); competitor AMI‐331 5 µM): 1 PSMs
Spectra (PSMs) AMI‐329 beads bound (CKL11 (AT4G14340); competitor AMI‐331 50 µM): 0 PSMs
